Assay results published in ChEMBL document CHEMBL5303304, “EUbOPEN Chemogenomics Library - IncuCyte” (2023).
Several values for one entry are separate records, joined by “and”; a condition that tells them apart may be missing. Identical values can stand only once.

Experiments:
Format in all cases: toxicity, cell-based
[1] = system: HEK-293T; experiment: Incucyte cell viability with HEK293T; settings: human, 10 µM, compound concentration 10 uM
[2] = system: U2OS; experiment: Incucyte cell viability with U2OS; settings: human, 10 µM, compound concentration 10 uM
[3] = system: Fibroblast; experiment: Incucyte cell viability with human fibroblast; settings: 10 µM, compound concentration 10 uM
Further: unitless GR value; below 1 slowed growth and below 0 cell loss.

| Structure (SMILES) | Growth Rate ([1]; 6 h, replicate number 1) | Growth Rate ([1]; 12 h, replicate number 2) | Growth Rate ([1]; 24 h, replicate number 2) | Growth Rate ([2]; 0 h, replicate number 2) | Growth Rate ([2]; 6 h, replicate number 2) | Growth Rate ([2]; 12 h, replicate number 2) | Growth Rate ([2]; 18 h, replicate number 2) | Growth Rate ([2]; 24 h, replicate number 1) | Growth Rate ([2]; 24 h, replicate number 2) | Growth Rate ([3]; 6 h, replicate number 2) | Growth Rate ([3]; 12 h, replicate number 2) | Growth Rate ([3]; 18 h, replicate number 2) | Growth Rate ([3]; 24 h, replicate number 2) | Growth Rate ([1]; 0 h, replicate number 2) | Growth Rate ([1]; 12 h, replicate number 1) | Growth Rate ([1]; 18 h, replicate number 1) | Growth Rate ([1]; 24 h, replicate number 1) | Growth Rate ([2]; 0 h, replicate number 1) | Growth Rate ([2]; 6 h, replicate number 1) | Growth Rate ([3]; 0 h, replicate number 2) | also measured |
| --- | --- | --- | --- | --- | --- | --- | --- | --- | --- | --- | --- | --- | --- | --- | --- | --- | --- | --- | --- | --- | --- |
| COC(=O)c1cc2c(cn1)[nH]c1ccccc12 [BETA-CCM] | 0.67 | 0.64 | 0.86 | -0.72 | 0.6 | 0.95 | 1 | 0.98 | 0.97 | -0.82 | 0.65 | 0.98 | 0.9 |  |  |  |  |  |  |  | Growth Rate ([1]; 18 h, replicate number 2): 0.78; Growth Rate ([2]; 12 h, replicate number 1): 0.72; Growth Rate ([2]; 18 h, replicate number 1): 0.85; Growth Rate ([3]; 0 h, replicate number 1): 0.3; Growth Rate ([3]; 6 h, replicate number 1): 0.4; Growth Rate ([3]; 12 h, replicate number 1): -1 |
| CC(=O)N1CCC(c2ccc(C(=O)NC3=NCCN3)cc2C(F)(F)F)CC1 [BI 0054] | 0.29 |  |  |  |  |  | 0.92 |  |  |  | 0.87 | 0.82 | 0.88 | -0.32 | 0.6 | 0.87 | 0.81 | 0.95 | 0.82 |  | Growth Rate ([2]; 12 h, replicate number 1): 0.97; Growth Rate ([3]; 0 h, replicate number 1): -1 |
| COc1ccc2c(O[C@@H]3C[C@H]4C(=O)N[C@]5(C(=O)O)CC5/C=C\CCCCC[C@H](NC(=O)OC5CCCC5)C(=O)N4C3)cc(-c3csc(NC(=O)C(C)C)n3)nc2c1C (some centres undefined) [BI 1230] | 0.86 and 0.76 |  | 0.34 and 0.67 |  | 0.86 | 0.86 | 0.98 | 0.77 and 0.99 | 0.95 |  | -0.04 and -0.05 |  |  |  | 0.92 and 0.77 | 0.86 and 0.65 | 0.7 | 0.55 | 0.71 and 0.63 | 0.45 | Growth Rate ([2]; 18 h, replicate number 1): 0.65 and 0.86; Growth Rate ([3]; 12 h, replicate number 1): 0.15 and 0.2; Growth Rate ([3]; 24 h, replicate number 1): 0.07 and 0.17 |
| O=C(N[C@H]1CCCCC/C=C\C2C[C@@]2(C(=O)O)NC(=O)[C@@H]2C[C@@H](Oc3ccncc3)CN2C1=O)OC1CCCC1 (some centres undefined) [BI 1675] |  | 0.89 | 0.89 |  |  | 0.99 |  | 0.89 |  | 0.39 |  | 0.91 |  | -0.95 |  |  | 0.94 | 0.43 | 0.77 |  | Growth Rate ([1]; 0 h, replicate number 1): -0.15; Growth Rate ([1]; 6 h, replicate number 2): 0.64; Growth Rate ([2]; 12 h, replicate number 1): 0.68; Growth Rate ([2]; 18 h, replicate number 1): 0.77; Growth Rate ([3]; 6 h, replicate number 1): 0.23; Growth Rate ([3]; 12 h, replicate number 1): 0.84; Growth Rate ([3]; 24 h, replicate number 1): 0.99 |
| CCOCCn1cc(C(=O)Nc2ccc(-n3nc(-c4cccnc4)cc3C(F)(F)F)cn2)ccc1=O [BI 1935] | 0.1 | 0.27 | 0.51 |  |  | 0.89 |  | 0.66 |  | 0.1 | 0.65 |  |  |  | 0.36 | 0.41 | 0.48 |  | 0.75 | -0.02 | Growth Rate ([1]; 6 h, replicate number 2): -0.06; Growth Rate ([1]; 18 h, replicate number 2): 0.43; Growth Rate ([2]; 12 h, replicate number 1): 0.52; Growth Rate ([2]; 18 h, replicate number 1): 0.7; Growth Rate ([3]; 12 h, replicate number 1): 0.59; Growth Rate ([3]; 18 h, replicate number 1): 0.83; Growth Rate ([3]; 24 h, replicate number 1): 0.78 |
| O=C(Nc1ccc(-n2nc(-c3cccnc3)cc2C(F)(F)F)cn1)c1ccc(-c2ccccc2)c(F)c1 [BI 2049] |  |  |  | -0.06 | 0.46 | 0.84 | 0.93 |  | 0.97 |  | 0.85 | 0.98 | 0.91 | 0.47 |  |  |  |  | 0.83 |  | Growth Rate ([1]; 0 h, replicate number 1): -0.8; Growth Rate ([3]; 24 h, replicate number 1): 0.99 |
| CC(C)(C#Cc1ccc(NC(=O)COc2ccccc2C(=O)c2ccccc2)c(Cl)c1)C(=O)O [BI 2439] | 0.72 | 0.42 | 0.69 | -0.27 | 0.76 | 0.68 | 0.81 |  | 0.76 |  | 0.66 |  |  |  | 0.81 | 0.78 | 0.79 |  | 1 | -0.64 | Growth Rate ([1]; 6 h, replicate number 2): 0.41; Growth Rate ([1]; 18 h, replicate number 2): 0.62; Growth Rate ([3]; 6 h, replicate number 1): 0.59; Growth Rate ([3]; 18 h, replicate number 1): 0.92; Growth Rate ([3]; 24 h, replicate number 1): 0.89 |
| Cc1c(NC(=O)COc2ccc(Cl)cc2C(=O)c2cc(F)cc(C(F)(F)F)c2)ccc(C(=O)O)c1F [BI 2540] | 0.71 | 0.77 | 0.78 | 0.41 | -0.88 |  |  | 0.89 and 0.98 |  | 0.6 | 0.54 | 0.78 | 0.97 | 0.89 and 0.62 |  | 0.97 | 0.91 | 0.29 | 0.84 | -0.2 | Growth Rate ([1]; 0 h, replicate number 1): 0.45; Growth Rate ([1]; 6 h, replicate number 2): 0.58; Growth Rate ([1]; 18 h, replicate number 2): 0.75; Growth Rate ([2]; 12 h, replicate number 1): 0.64; Growth Rate ([2]; 18 h, replicate number 1): 0.91; Growth Rate ([3]; 6 h, replicate number 1): 0.41; Growth Rate ([3]; 12 h, replicate number 1): 0.77; Growth Rate ([3]; 18 h, replicate number 1): 0.85; Growth Rate ([3]; 24 h, replicate number 1): 0.87 and 0.99 |
| O=C(NC[C@@H]1[C@H]2CN(C(=O)OCc3cc(C(F)(F)F)cc(C(F)(F)F)c3)C[C@@H]12)c1ccc2[nH]nnc2c1 [BI 2545] | -0.09 | 0.56 | 0.91 | -0.98 | -0.56 | -0.13 | 0.23 |  | 0.42 | -0.08 | 0.94 |  |  |  | 0.5 | 0.6 | 0.76 |  | 0.88 | -0.7 | Growth Rate ([1]; 6 h, replicate number 2): -0.7; Growth Rate ([1]; 18 h, replicate number 2): 0.94; Growth Rate ([3]; 6 h, replicate number 1): 0.33 |
| Cc1nccc(COC(=O)N2C[C@@H]3[C@@H](CNC(=O)c4ccc5[nH]nnc5c4)[C@@H]3C2)n1 [BI 3017] | 0.95 |  | 0.99 |  |  | 0.99 |  | 0.86 |  |  |  | 0.73 | 0.95 | 0.4 |  |  |  | 0.85 | 0.95 |  | Growth Rate ([1]; 0 h, replicate number 1): 0.2; Growth Rate ([3]; 18 h, replicate number 1): 0.93 |
| CCOC(=O)c1cc2cc(-c3cc(C(=O)NCc4ccc(C(=O)O)cc4)nn3C)ccc2[nH]1 [BI 4394] | 0.88 |  |  |  |  | 0.96 | 0.99 | 0.96 |  | 0.71 | 0.54 | 0.7 | 0.86 | 0.34 | 0.98 | 0.93 |  | 0.89 | 0.74 |  | Growth Rate ([1]; 0 h, replicate number 1): 0.13 |
| Cn1nc(C(=O)NCc2ccc(C(=O)O)cc2)cc1-c1ccc2[nH]ccc2c1 [BI 4395] |  | 0.63 | 0.56 | 0.14 | 0.99 | 0.96 |  |  | 0.9 |  |  |  |  | 0.58 |  |  |  |  | 0.66 | -0.67 | Growth Rate ([1]; 0 h, replicate number 1): -0.1; Growth Rate ([1]; 6 h, replicate number 2): 0.57; Growth Rate ([1]; 18 h, replicate number 2): 0.85 |
| Cn1c(C2(NC(=O)c3ccc(NCC4CCCCC4)nc3)CCC2)nc2ccc(/C=C/C(=O)O)cc21 [BI 7656] | 0.41 |  |  | 0.24 |  |  |  | 0.92 | 0.93 | -0.44 | 0.82 |  | 0.72 | -0.78 | 0.81 |  |  | 0.79 | 0.81 |  | Growth Rate ([2]; 12 h, replicate number 1): 0.92; Growth Rate ([3]; 24 h, replicate number 1): 0.94 |
| CS(=O)(=O)NCC[C@H](NC(=O)c1cncc2c1cnn2-c1ccc(F)cc1)c1ccnc(S(C)(=O)=O)c1 [BI 9307] |  |  |  |  | 0.9 | 0.91 |  |  |  |  |  |  |  | 0.23 |  |  | 1 |  | 0.83 | -0.94 | Growth Rate ([1]; 0 h, replicate number 1): -0.12; Growth Rate ([3]; 0 h, replicate number 1): -0.98; Growth Rate ([3]; 6 h, replicate number 1): 0.89; Growth Rate ([3]; 12 h, replicate number 1): 0.91 |
